Read-outs that look alike come from different tables or passages of the source.
Assays:
Type in all cases: in vivo
[1] = test system: chickweed (Stellaria media); assay: Test C postemergence; settings: Stellaria media, post-emergence
Summary of the method: (§1)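 Test compounds, formulated in a non-phytotoxic solvent mix with surfactant, were applied to freshly planted seeds and, at the same time, to emerged plants at 1- to 4-leaf stage (2 to 18 cm). After 12 to 14 days in the greenhouse, response was scored visually versus controls, 0 = no effect, 100 = complete control.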

[2] = test system: woolly cupgrass (Eriochloa villosa); assay: Test C pre/postemergence; settings: Eriochloa villosa; for pest or weed control at 31 g/ha: 31 g ai/ha; for pest or weed control at 62 g/ha: 62 g ai/ha; for pest or weed control at 125 g/ha: 125 g ai/ha; for pest or weed control at 250 g/ha: 250 g ai/ha
Summary of the method: as §1

[3] = test system: common ragweed (Ambrosia elatior); assay: Test C pre/postemergence; settings: Ambrosia artemisiifolia; for pest or weed control at 31 g/ha: 31 g ai/ha; for pest or weed control at 62 g/ha: 62 g ai/ha; for pest or weed control at 125 g/ha: 125 g ai/ha; for pest or weed control at 250 g/ha: 250 g ai/ha
Summary of the method: as §1

[4] = test system: velvetleaf (Abutilon theophrasti); assay: Test C pre/postemergence; settings: Abutilon theophrasti; for pest or weed control at 31 g/ha: 31 g ai/ha; for pest or weed control at 62 g/ha: 62 g ai/ha; for pest or weed control at 125 g/ha: 125 g ai/ha; for pest or weed control at 250 g/ha: 250 g ai/ha
Summary of the method: as §1

[5] = test system: bermudagrass (Cynodon dactylon); assay: Test C pre/postemergence; settings: Cynodon dactylon; for pest or weed control at 31 g/ha: 31 g ai/ha; for pest or weed control at 62 g/ha: 62 g ai/ha; for pest or weed control at 125 g/ha: 125 g ai/ha; for pest or weed control at 125 g/ha / pest or weed control at 250 g/ha: scale 0 to 100; for pest or weed control at 250 g/ha: 250 g ai/ha
Summary of the method: as §1

[6] = test system: goosegrass (Eleusine indica); assay: Test C pre/postemergence; settings: Eleusine indica; for pest or weed control at 31 g/ha: 31 g ai/ha; for pest or weed control at 62 g/ha: 62 g ai/ha; for pest or weed control at 125 g/ha: 125 g ai/ha; for pest or weed control at 250 g/ha: 250 g ai/ha
Summary of the method: as §1

[7] = test system: yellow nutsedge (Cyperus esculentus); assay: Test C pre/postemergence; settings: Cyperus; for pest or weed control at 31 g/ha: 31 g ai/ha; for pest or weed control at 62 g/ha: 62 g ai/ha; for pest or weed control at 125 g/ha: 125 g ai/ha; for pest or weed control at 250 g/ha: 250 g ai/ha
Summary of the method: as §1

[8] = test system: pigweed (Amaranthus retroflexus); assay: Test C pre/postemergence; settings: Amaranthus retroflexus; for pest or weed control at 31 g/ha: 31 g ai/ha; for pest or weed control at 62 g/ha: 62 g ai/ha; for pest or weed control at 125 g/ha: 125 g ai/ha; for pest or weed control at 250 g/ha: 250 g ai/ha
Summary of the method: as §1

[9] = post-emergence, Postemergence, scale 0 to 100 (0 no effect, 100 complete control), read-out: Cupgrass, Woolly plant response rating
[10] = pre-emergence, Preemergence, scale 0 to 100, 0 no effect, 100 complete control, read-out: Plant response rating, Cupgrass, Woolly
[11] = pre-emergence, Preemergence, scale 0 to 100, read-out: Plant response rating, Cupgrass, Woolly
[12] = post-emergence, Postemergence, scale 0 to 100 (0 no effect, 100 complete control), read-out: Ragweed plant response rating
[13] = pre-emergence, Preemergence, scale 0 to 100, 0 no effect, 100 complete control, read-out: Plant response rating, Ragweed
[14] = pre-emergence, Preemergence, scale 0 to 100, read-out: Plant response rating, Ragweed
[15] = post-emergence, Postemergence, scale 0 to 100 (0 no effect, 100 complete control), read-out: Velvetleaf plant response rating
[16] = pre-emergence, Preemergence, scale 0 to 100, 0 no effect, 100 complete control, read-out: Plant response rating, Velvetleaf
[17] = pre-emergence, Preemergence, scale 0 to 100, read-out: Plant response rating, Velvetleaf
[18] = post-emergence, Postemergence, read-out: Plant response rating, Bermudagrass
[19] = pre-emergence, Preemergence, scale 0 to 100, 0 no effect, 100 complete control, read-out: Plant response rating, Bermudagrass
[20] = pre-emergence, Preemergence, read-out: Plant response rating, Bermudagrass
[21] = post-emergence, Postemergence, scale 0 to 100 (0 no effect, 100 complete control), read-out: Goosegrass plant response rating
[22] = pre-emergence, Preemergence, scale 0 to 100, 0 no effect, 100 complete control, read-out: Plant response rating, Goosegrass
[23] = pre-emergence, Preemergence, scale 0 to 100, read-out: Plant response rating, Goosegrass
[24] = post-emergence, Postemergence, scale 0 to 100 (0 no effect, 100 complete control), read-out: Nutsedge, Yellow plant response rating
[25] = pre-emergence, Preemergence, scale 0 to 100, 0 no effect, 100 complete control, read-out: Plant response rating, Nutsedge, Yellow
[26] = pre-emergence, Preemergence, scale 0 to 100, read-out: Plant response rating, Nutsedge, Yellow
[27] = post-emergence, Postemergence, scale 0 to 100 (0 no effect, 100 complete control), read-out: Pigweed plant response rating
[28] = pre-emergence, Preemergence, scale 0 to 100, 0 no effect, 100 complete control, read-out: Plant response rating, Pigweed
[29] = pre-emergence, Preemergence, scale 0 to 100, read-out: Plant response rating, Pigweed

COC(=O)c1nc(C(C)C)nc(N)c1Br [Compound 3]
55%: pest or weed control at 31 g/ha ([3]; post-emergence, Postemergence, read-out: Plant response rating (scale of 0 to 100), Ragweed) | pest or weed control at 62 g/ha [4, 15] | pest or weed control at 125 g/ha [4, 15]
20%: pest or weed control at 125 g/ha [4, 17] | pest or weed control at 31 g/ha [8, 28]
65%: pest or weed control at 62 g/ha [8, 27] | pest or weed control at 125 g/ha [8, 29]
0%: pest or weed control at 31 g/ha ([1]; 31 g ai/ha, read-out: Plant response rating (scale of 0 to 100), Chickweed) | pest or weed control at 62 g/ha ([1]; 62 g ai/ha, scale 0 to 100 (0 no effect, 100 complete control), read-out: Chickweed plant response rating) | pest or weed control at 125 g/ha ([1]; 125 g ai/ha, scale 0 to 100, read-out: Plant response rating, Chickweed) | pest or weed control at 31 g/ha ([2]; post-emergence, Postemergence, read-out: Plant response rating (scale of 0 to 100), Cupgrass, Woolly) | pest or weed control at 62 g/ha [2, 9] | pest or weed control at 125 g/ha [2, 9] | pest or weed control at 250 g/ha ([2]; post-emergence, Postemergence, scale 0 to 100, read-out: Plant response rating, Cupgrass, Woolly) | pest or weed control at 31 g/ha [2, 10] | pest or weed control at 62 g/ha [2, 10] | pest or weed control at 125 g/ha [2, 11] | pest or weed control at 250 g/ha [2, 11] | pest or weed control at 31 g/ha [3, 13] | pest or weed control at 62 g/ha [3, 13] | pest or weed control at 125 g/ha [3, 14] | pest or weed control at 31 g/ha [4, 16] | pest or weed control at 62 g/ha [4, 16] | pest or weed control at 31 g/ha ([5]; post-emergence, Postemergence, read-out: Plant response rating (scale of 0 to 100), Bermudagrass) | pest or weed control at 62 g/ha ([5]; post-emergence, Postemergence, scale 0 to 100 (0 no effect, 100 complete control), read-out: Bermudagrass plant response rating) | pest or weed control at 125 g/ha [5, 18] | pest or weed control at 31 g/ha [5, 19] | pest or weed control at 62 g/ha [5, 19] | pest or weed control at 125 g/ha [5, 20] | pest or weed control at 250 g/ha [5, 20] | pest or weed control at 31 g/ha ([6]; post-emergence, Postemergence, read-out: Plant response rating (scale of 0 to 100), Goosegrass) | pest or weed control at 62 g/ha [6, 21] | pest or weed control at 125 g/ha [6, 21] | pest or weed control at 250 g/ha ([6]; post-emergence, Postemergence, scale 0 to 100, read-out: Plant response rating, Goosegrass) | pest or weed control at 31 g/ha [6, 22] | pest or weed control at 62 g/ha [6, 22] | pest or weed control at 125 g/ha [6, 23] | pest or weed control at 250 g/ha [6, 23] | pest or weed control at 31 g/ha ([7]; post-emergence, Postemergence, read-out: Plant response rating (scale of 0 to 100), Nutsedge, Yellow) | pest or weed control at 62 g/ha [7, 24] | pest or weed control at 125 g/ha [7, 24] | pest or weed control at 250 g/ha ([7]; post-emergence, Postemergence, scale 0 to 100, read-out: Plant response rating, Nutsedge, Yellow) | pest or weed control at 31 g/ha [7, 25] | pest or weed control at 62 g/ha [7, 25] | pest or weed control at 125 g/ha [7, 26] | pest or weed control at 250 g/ha [7, 26]
50%: pest or weed control at 62 g/ha [8, 28]
95%: pest or weed control at 250 g/ha ([3]; post-emergence, Postemergence, scale 0 to 100, read-out: Plant response rating, Ragweed)
25%: pest or weed control at 31 g/ha ([4]; post-emergence, Postemergence, read-out: Plant response rating (scale of 0 to 100), Velvetleaf)
70%: pest or weed control at 250 g/ha ([4]; post-emergence, Postemergence, scale 0 to 100, read-out: Plant response rating, Velvetleaf)
45%: pest or weed control at 250 g/ha [3, 14] | pest or weed control at 250 g/ha [5, 18]
80%: pest or weed control at 125 g/ha [3, 12] | pest or weed control at 250 g/ha ([8]; post-emergence, Postemergence, scale 0 to 100, read-out: Plant response rating, Pigweed) | pest or weed control at 250 g/ha [8, 29]
75%: pest or weed control at 62 g/ha [3, 12] | pest or weed control at 125 g/ha [8, 27]
35%: pest or weed control at 250 g/ha [4, 17]
40%: pest or weed control at 250 g/ha ([1]; 250 g ai/ha, scale 0 to 100, read-out: Plant response rating, Chickweed)
60%: pest or weed control at 31 g/ha ([8]; post-emergence, Postemergence, read-out: Plant response rating (scale of 0 to 100), Pigweed)
